According to article PMC5471454, “Integrative approach for the analysis of the proteome-wide response to bismuth drugs in Helicobacter pylori” (Chemical Science, 2017):

Biological target: T1, HpDnaK (Hsp70) (Helicobacter pylori, UniProt P55994)
T1 construct: gene dnaK; overexpressed and purified full-length protein; native protein in cells for CETSA
T1 sequence (P55994 2-620): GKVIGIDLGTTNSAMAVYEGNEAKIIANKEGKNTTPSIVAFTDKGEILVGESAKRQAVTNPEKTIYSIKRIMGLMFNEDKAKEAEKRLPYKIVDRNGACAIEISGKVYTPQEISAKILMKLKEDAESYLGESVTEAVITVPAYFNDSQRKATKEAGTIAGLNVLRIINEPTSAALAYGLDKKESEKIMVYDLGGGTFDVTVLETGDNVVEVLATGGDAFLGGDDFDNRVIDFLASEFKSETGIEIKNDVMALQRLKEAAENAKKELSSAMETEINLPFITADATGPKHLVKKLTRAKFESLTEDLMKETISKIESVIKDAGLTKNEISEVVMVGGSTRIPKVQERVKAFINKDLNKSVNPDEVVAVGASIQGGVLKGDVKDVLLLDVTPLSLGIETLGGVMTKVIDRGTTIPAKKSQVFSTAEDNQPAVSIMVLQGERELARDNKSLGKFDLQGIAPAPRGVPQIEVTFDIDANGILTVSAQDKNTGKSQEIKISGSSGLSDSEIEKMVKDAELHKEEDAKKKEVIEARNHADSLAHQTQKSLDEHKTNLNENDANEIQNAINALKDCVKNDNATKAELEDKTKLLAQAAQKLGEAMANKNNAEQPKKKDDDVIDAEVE
Assay: ATPase assay, released phosphate
Type: biochemical
Details: no CBS; rate linear within 80 min

SMILES: Nc1ncnc2c1ncn2[C@@H]1O[C@H](COP(=O)(O)OP(=O)(O)OP(=O)(O)O)[C@@H](O)[C@H]1O [ATP]
- ATPase assay, released phosphate: rates of ATP hydrolysis measured by monitoring the amounts of released free phosphate
